Source: publication PMC10209615, “Pharmacological inhibition of LSD1 suppresses growth of hepatocellular carcinoma by inducing GADD45B” (MedComm, 2023)

Key:
[1] = test system: PLC/PRF/5; assay: EdU incorporation assay; conditions: PLC/PRF/5, 96 h
[2] = Body weight of tumor‐bearing mice (HepG2, Hep3B, PDX1, PDX2); assay type: in vivo; conditions: CDX and PDX models, compared with control
Description: When the tumor volume reached approximately 100 mm^3, CDX & PDX tumor‐bearing mice were randomly divided into groups: (1) blank solvent; (2) ZY0511 50 mg/kg per day, i.p.; (3) ZY0511 100 mg/kg per day, i.p.; and (4) combinatorial treatment of ZY0511 50 mg/kg with DTP3 30 mg/kg, per day, i.p. Tumor sizes and animal body weights were monitored every 3 days, and tumor volumes were calculated as 0.5 × length × width^2. TGI rate was calculated as (1 − tumor volume of treated group/tumor volume of control group) x 100%.

[3] = test system: Hep3B; assay: MTT assay, ZY0511 and DTP3; assay type: cell-based; conditions: Homo sapiens, 96 h, read-out: Inhibition rate
Description: (§1) Cell viability was determined using Cell Counting Kit‐8 (CCK8; Dojindo) or 3‐(4, 5‐dimethylthiazol‐2‐yl)‐2,5‐diphenyltetrazoliumbromide (MTT, Sigma Aldrich) assay. A selection of HCC cells was exposed to gradient concentration of ZY0511 for 96–144 h, or exposed to other LSD1 inhibitors including SP2509, GSK2879552, and ORY1001 for 144 h, or exposed to DTP3, which enhanced the apoptosis induction function of GADD45B for 96 h in combination therapy. Consequently, cell viability was determined using a microplate reader (Thermo Fisher) at 450 nm for CCK8 assay, or 570 nm for MTT assay, at different time points. The IC50 values and CI values were analyzed and calculated using GraphPad Prism 8 and CompuSyn (version 1.0; http://www.combosyn.com), respectively.

[4] = test system: HepG2; assay: MTT assay, ZY0511 and DTP3; assay type: cell-based; conditions: Homo sapiens, HepG2, 96 h, read-out: Inhibition rate
Description: as §1

[5] = target: T1, PKBα (Homo sapiens, UniProt P31749); assay: Kinase activity detection (Eurofins); assay type: biochemical; conditions: ZY0511 1 µM, read-out: Inhibition rate
T1 construct: purchased Eurofins Pharma Discovery Services (KinaseProfiler)
Description: (§2) The activity of ZY0511 against 104 cancer‐related kinases was carried out by Eurofins Pharma Discovery Services (Celle Lévescault, France).

[6] = target: T2, PI3 Kinase (p110α (E542K)/p85α) (Homo sapiens, UniProt P42336, E542K); assay: Kinase activity detection (Eurofins); assay type: biochemical; conditions: ZY0511 1 µM, read-out: Inhibition rate
T2 construct: purchased Eurofins Pharma Discovery Services
Description: as §2

[7] = target: T3, ErbB4 (Homo sapiens, UniProt Q15303); assay: Kinase activity detection (Eurofins); assay type: biochemical; conditions: ZY0511 1 µM, read-out: Activation rate
T3 construct: purchased Eurofins Pharma Discovery Services (KinaseProfiler)
Description: as §2

[8] = target: T4, Blk (Homo sapiens, UniProt P51451); assay: Kinase activity detection (Eurofins); assay type: biochemical; conditions: ZY0511 1 µM, read-out: Inhibition rate
T4 construct: purchased Eurofins Pharma Discovery Services (KinaseProfiler)
Description: as §2

[9] = target: T5, PKCη (Homo sapiens, UniProt P24723); assay: Kinase activity detection (Eurofins); assay type: biochemical; conditions: ZY0511 1 µM, read-out: Activation rate
T5 construct: purchased Eurofins Pharma Discovery Services (KinaseProfiler)
Description: as §2

[10] = target: T6, PKCα (Homo sapiens, UniProt P17252); assay: Kinase activity detection (Eurofins); assay type: biochemical; conditions: ZY0511 1 µM, read-out: Activation rate
T6 construct: purchased Eurofins Pharma Discovery Services (KinaseProfiler)
Description: as §2

[11] = target: T7, DCAMKL3 (Homo sapiens, UniProt Q9C098); assay: Kinase activity detection (Eurofins); assay type: biochemical; conditions: ZY0511 1 µM, read-out: Inhibition rate
T7 construct: purchased Eurofins Pharma Discovery Services
Description: as §2

[12] = target: T8, cKit (V560G) (Homo sapiens, UniProt P10721, V560G); assay: Kinase activity detection (Eurofins); assay type: biochemical; conditions: ZY0511 1 µM, read-out: Inhibition rate
T8 construct: purchased Eurofins Pharma Discovery Services (KinaseProfiler)
Description: as §2

[13] = target: T9, Axl (Homo sapiens, UniProt P30530); assay: Kinase activity detection (Eurofins); assay type: biochemical; conditions: ZY0511 1 µM, read-out: Activation rate
T9 construct: purchased Eurofins Pharma Discovery Services (KinaseProfiler)
Description: as §2

[14] = target: T10, PI3 Kinase (p110α (H1047R)/p85α) (Homo sapiens, UniProt P42336, H1047R); assay: Kinase activity detection (Eurofins); assay type: biochemical; conditions: ZY0511 1 µM, read-out: Inhibition rate
T10 construct: purchased Eurofins Pharma Discovery Services (KinaseProfiler)
Description: as §2

[15] = target: T11, PDGFRα (D842V) (Homo sapiens, UniProt P16234, D842V); assay: Kinase activity detection (Eurofins); assay type: biochemical; conditions: ZY0511 1 µM, read-out: Activation rate
T11 construct: purchased Eurofins Pharma Discovery Services (KinaseProfiler)
Description: as §2

[16] = target: T12, PI3 Kinase (p110βγ/p85α) (Homo sapiens, UniProt P42338); assay: Kinase activity detection (Eurofins); assay type: biochemical; conditions: ZY0511 1 µM, read-out: Inhibition rate
T12 construct: purchased Eurofins Pharma Discovery Services (KinaseProfiler)
Description: as §2

[17] = target: T13, MEK1 (Homo sapiens, UniProt Q02750); assay: Kinase activity detection (Eurofins); assay type: biochemical; conditions: ZY0511 1 µM, read-out: Inhibition rate
T13 construct: purchased Eurofins Pharma Discovery Services (KinaseProfiler)
Description: as §2

[18] = target: T14, Abl (Homo sapiens, UniProt P00519); assay: Kinase activity detection (Eurofins); assay type: biochemical; conditions: ZY0511 1 µM, read-out: Inhibition rate
T14 construct: purchased Eurofins Pharma Discovery Services
Description: as §2

[19] = target: T15, IKKα (Homo sapiens, UniProt O15111); assay: Kinase activity detection (Eurofins); assay type: biochemical; conditions: ZY0511 1 µM, read-out: Activation rate
T15 construct: purchased Eurofins Pharma Discovery Services (KinaseProfiler)
Description: as §2

[20] = target: T16, DDR2 (Homo sapiens, UniProt Q16832); assay: Kinase activity detection (Eurofins); assay type: biochemical; conditions: ZY0511 1 µM, read-out: Inhibition rate
T16 construct: purchased Eurofins Pharma Discovery Services (KinaseProfiler)
Description: as §2

[21] = target: T17, PDK1 (Homo sapiens, UniProt O15530); assay: Kinase activity detection (Eurofins); assay type: biochemical; conditions: ZY0511 1 µM, read-out: Inhibition rate
T17 construct: purchased Eurofins Pharma Discovery Services (KinaseProfiler)
Description: as §2

[22] = target: T18, cKit (Homo sapiens, UniProt P10721); assay: Kinase activity detection (Eurofins); assay type: biochemical; conditions: ZY0511 1 µM, read-out: Activation rate
T18 construct: purchased Eurofins Pharma Discovery Services (KinaseProfiler)
Description: as §2

[23] = target: T19, Met (Homo sapiens, UniProt P08581); assay: Kinase activity detection (Eurofins); assay type: biochemical; conditions: ZY0511 1 µM, read-out: Inhibition rate
T19 construct: purchased Eurofins Pharma Discovery Services (KinaseProfiler)
Description: as §2

[24] = target: T20, Wee1 (Homo sapiens, UniProt P30291); assay: Kinase activity detection (Eurofins); assay type: biochemical; conditions: ZY0511 1 µM, read-out: Activation rate
T20 construct: purchased Eurofins Pharma Discovery Services (KinaseProfiler)
Description: as §2

[25] = target: T21, CHK2 (Homo sapiens, UniProt O96017); assay: Kinase activity detection (Eurofins); assay type: biochemical; conditions: ZY0511 1 µM, read-out: Activation rate
T21 construct: purchased Eurofins Pharma Discovery Services (KinaseProfiler)
Description: as §2

[26] = target: T22, IKKε (Homo sapiens, UniProt Q14164); assay: Kinase activity detection (Eurofins); assay type: biochemical; conditions: ZY0511 1 µM, read-out: Activation rate
T22 construct: purchased Eurofins Pharma Discovery Services (KinaseProfiler)
Description: as §2

[27] = target: T23, DAPK1 (Homo sapiens, UniProt P53355); assay: Kinase activity detection (Eurofins); assay type: biochemical; conditions: ZY0511 1 µM, read-out: Activation rate
T23 construct: purchased Eurofins Pharma Discovery Services (KinaseProfiler)
Description: as §2

[28] = target: T24, LKB1 (Homo sapiens, UniProt Q15831); assay: Kinase activity detection (Eurofins); assay type: biochemical; conditions: ZY0511 1 µM, read-out: Inhibition rate
T24 construct: purchased Eurofins Pharma Discovery Services (KinaseProfiler)
Description: as §2

[29] = target: T25, B-Raf (V599E) (Homo sapiens, UniProt P15056, V600E); assay: Kinase activity detection (Eurofins); assay type: biochemical; conditions: ZY0511 1 µM, read-out: Inhibition rate
T25 construct: purchased Eurofins Pharma Discovery Services (KinaseProfiler)
Description: as §2

[30] = test system: Hep3B; assay: EdU incorporation assay; conditions: 96 h
[31] = Acute toxicity assay

T3 sequence (Q15303 26-1308): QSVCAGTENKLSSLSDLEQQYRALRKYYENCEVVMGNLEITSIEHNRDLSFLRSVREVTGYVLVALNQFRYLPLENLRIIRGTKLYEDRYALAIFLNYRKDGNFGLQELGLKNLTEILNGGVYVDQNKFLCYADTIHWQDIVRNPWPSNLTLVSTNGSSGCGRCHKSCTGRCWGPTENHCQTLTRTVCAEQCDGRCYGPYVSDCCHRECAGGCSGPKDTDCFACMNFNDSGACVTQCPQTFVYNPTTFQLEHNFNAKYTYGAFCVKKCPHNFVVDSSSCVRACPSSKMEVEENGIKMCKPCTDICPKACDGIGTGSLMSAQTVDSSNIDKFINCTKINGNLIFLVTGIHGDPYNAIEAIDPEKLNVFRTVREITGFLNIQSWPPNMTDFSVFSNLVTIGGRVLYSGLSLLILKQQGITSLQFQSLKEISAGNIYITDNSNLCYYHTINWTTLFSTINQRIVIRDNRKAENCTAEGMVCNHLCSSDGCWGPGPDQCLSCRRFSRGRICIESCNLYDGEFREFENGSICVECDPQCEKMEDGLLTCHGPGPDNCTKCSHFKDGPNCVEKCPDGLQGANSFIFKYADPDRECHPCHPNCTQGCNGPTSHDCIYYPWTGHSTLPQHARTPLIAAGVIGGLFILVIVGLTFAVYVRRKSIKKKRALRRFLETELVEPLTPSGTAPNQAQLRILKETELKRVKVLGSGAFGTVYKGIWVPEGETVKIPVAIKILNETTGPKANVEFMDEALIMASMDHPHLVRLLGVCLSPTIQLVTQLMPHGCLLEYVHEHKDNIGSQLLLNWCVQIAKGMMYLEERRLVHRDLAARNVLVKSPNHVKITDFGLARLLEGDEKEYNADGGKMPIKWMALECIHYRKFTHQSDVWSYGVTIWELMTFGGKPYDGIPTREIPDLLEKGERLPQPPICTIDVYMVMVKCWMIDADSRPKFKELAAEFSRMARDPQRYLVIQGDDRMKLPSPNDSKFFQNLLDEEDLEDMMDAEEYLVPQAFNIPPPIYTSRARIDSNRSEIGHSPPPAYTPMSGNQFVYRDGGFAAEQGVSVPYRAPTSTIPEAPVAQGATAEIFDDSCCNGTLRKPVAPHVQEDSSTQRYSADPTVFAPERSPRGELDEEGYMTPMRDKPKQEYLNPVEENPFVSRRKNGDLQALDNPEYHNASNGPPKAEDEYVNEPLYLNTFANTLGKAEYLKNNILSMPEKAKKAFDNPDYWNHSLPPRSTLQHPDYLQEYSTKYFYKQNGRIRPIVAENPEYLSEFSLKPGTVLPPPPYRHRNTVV
T17 sequence (O15530 whole entry): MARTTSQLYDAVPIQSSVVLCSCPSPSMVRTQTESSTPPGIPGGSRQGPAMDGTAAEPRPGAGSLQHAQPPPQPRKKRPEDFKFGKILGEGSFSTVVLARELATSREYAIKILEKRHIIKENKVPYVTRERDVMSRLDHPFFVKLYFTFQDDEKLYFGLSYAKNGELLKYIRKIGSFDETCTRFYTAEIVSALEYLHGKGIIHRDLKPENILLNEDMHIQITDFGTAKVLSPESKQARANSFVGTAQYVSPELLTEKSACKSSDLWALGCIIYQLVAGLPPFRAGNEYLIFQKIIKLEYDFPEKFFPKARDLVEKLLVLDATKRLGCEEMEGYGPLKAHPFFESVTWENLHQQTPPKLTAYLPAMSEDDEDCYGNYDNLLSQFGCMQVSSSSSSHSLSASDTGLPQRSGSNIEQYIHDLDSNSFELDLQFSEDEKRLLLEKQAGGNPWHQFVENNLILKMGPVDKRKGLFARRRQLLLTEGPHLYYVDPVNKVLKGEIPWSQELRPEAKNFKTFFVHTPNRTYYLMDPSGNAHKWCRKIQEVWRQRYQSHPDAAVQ
T24 sequence (Q15831 whole entry): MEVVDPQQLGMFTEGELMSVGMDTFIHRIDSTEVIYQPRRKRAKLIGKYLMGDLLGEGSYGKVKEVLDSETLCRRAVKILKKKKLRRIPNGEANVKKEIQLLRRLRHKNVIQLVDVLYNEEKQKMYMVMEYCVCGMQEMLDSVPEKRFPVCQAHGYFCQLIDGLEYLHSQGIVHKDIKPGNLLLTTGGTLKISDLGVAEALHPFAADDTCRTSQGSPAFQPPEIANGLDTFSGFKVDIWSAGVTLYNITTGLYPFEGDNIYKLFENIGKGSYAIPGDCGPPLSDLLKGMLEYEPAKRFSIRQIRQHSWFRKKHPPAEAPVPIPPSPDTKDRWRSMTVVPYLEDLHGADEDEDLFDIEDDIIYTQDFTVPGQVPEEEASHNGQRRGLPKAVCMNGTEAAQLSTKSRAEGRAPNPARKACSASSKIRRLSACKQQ
T24 sequence (Q7RTN6 whole entry partner): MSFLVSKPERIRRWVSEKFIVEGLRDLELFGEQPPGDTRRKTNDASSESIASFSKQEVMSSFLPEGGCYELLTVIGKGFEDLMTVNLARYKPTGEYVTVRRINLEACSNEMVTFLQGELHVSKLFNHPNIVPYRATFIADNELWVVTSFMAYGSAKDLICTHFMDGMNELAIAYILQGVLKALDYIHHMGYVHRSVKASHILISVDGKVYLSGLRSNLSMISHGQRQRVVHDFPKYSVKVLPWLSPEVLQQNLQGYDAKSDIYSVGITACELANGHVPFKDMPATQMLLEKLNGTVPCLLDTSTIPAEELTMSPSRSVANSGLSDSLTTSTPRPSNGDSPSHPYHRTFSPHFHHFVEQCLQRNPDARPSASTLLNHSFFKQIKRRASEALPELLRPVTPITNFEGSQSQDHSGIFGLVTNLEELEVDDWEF
T24 sequence (Q9Y376 whole entry partner): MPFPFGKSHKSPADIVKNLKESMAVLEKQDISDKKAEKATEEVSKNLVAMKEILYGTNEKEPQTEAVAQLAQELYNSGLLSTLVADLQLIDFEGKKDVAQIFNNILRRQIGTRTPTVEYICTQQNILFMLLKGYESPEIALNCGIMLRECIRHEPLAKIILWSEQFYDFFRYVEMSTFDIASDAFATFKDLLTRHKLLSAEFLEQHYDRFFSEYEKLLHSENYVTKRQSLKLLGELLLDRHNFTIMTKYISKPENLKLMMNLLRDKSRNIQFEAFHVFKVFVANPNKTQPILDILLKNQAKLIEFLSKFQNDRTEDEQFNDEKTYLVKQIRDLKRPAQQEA
T7 sequence (Q9C098 whole entry, species assumed): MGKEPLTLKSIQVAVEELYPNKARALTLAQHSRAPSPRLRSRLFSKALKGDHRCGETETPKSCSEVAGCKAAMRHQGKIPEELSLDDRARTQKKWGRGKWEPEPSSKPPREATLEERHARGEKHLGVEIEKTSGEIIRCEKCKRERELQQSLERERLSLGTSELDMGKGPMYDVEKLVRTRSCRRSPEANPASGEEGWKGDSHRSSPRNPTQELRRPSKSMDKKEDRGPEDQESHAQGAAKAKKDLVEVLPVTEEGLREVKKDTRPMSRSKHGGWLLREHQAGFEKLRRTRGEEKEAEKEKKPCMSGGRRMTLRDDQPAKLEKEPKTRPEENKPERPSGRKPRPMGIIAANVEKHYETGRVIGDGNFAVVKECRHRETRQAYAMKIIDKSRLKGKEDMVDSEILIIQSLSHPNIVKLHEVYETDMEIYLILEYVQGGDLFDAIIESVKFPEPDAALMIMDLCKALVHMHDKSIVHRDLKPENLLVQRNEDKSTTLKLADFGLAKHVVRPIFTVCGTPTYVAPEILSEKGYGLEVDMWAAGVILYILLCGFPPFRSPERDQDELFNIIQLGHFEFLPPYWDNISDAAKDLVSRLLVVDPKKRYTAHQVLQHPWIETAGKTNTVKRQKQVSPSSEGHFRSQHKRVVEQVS
T13 sequence (Q02750 whole entry): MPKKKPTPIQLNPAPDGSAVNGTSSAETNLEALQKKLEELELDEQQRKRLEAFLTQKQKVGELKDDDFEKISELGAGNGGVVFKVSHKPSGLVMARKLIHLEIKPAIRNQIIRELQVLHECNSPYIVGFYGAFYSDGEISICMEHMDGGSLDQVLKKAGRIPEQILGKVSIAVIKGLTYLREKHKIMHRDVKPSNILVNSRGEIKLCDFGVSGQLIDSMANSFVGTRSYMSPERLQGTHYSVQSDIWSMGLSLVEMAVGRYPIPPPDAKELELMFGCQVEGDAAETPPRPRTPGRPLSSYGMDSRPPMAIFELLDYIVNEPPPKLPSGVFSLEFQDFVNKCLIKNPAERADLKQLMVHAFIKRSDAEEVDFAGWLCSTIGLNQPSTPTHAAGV

With `O=C(N/N=C1\CCc2c(Cl)ccc(O)c21)c1cccc(S(=O)(=O)N2CCOCC2)c1` [ZY0511, (E)‐N'‐(2, 3‐dihydro‐1H‐inden‐1‐ylidene) benzohydrazides] the “inhibition rate of EdU‐positive cells” value [1] was 9.2%, the “body weight of mice” value [2] was “did not change” and the inhibition at 0.25 µM [3] was 31%. For the same molecule, the inhibition at 0.5 µM [3] was 42%, the inhibition at 1 µM [3] was 49% and the inhibition at 2 µM [3] was 61%. For the same molecule, the inhibition at 0.25 µM [4] was 47%, the inhibition at 0.5 µM [4] was 65% and the inhibition at 1 µM [4] was 79%. It also gave an inhibition at 2 µM [4] of 80%, an inhibition at 1 µM [5] of 4% and an inhibition at 1 µM [6] of 2%. It also gave an activation at 1 µM [7] of 10%, an inhibition at 1 µM [8] of 29% and an activation at 1 µM [9] of 2%. The activation at 1 µM [10] was 4%, the inhibition at 1 µM [11] was 3% and the inhibition at 1 µM [12] was 7%. For the same molecule, the activation at 1 µM [13] was 3%, the inhibition at 1 µM [14] was 6% and the activation at 1 µM [15] was 2%. For the same molecule, the inhibition at 1 µM [16] was 8%, the inhibition at 1 µM [17] was 6% and the inhibition at 1 µM [18] was 13%. The activation at 1 µM [19] was 13%, the inhibition at 1 µM [20] was 5% and the inhibition at 1 µM [21] was 8%. It also gave an activation at 1 µM [22] of 14%, an inhibition at 1 µM [23] of 20% and an activation at 1 µM [24] of 11%. The activation at 1 µM [25] was 2%, the activation at 1 µM [26] was 1% and the activation at 1 µM [27] was 5%. For the same molecule, the inhibition at 1 µM [28] was 15%, the inhibition at 1 µM [29] was 51% and the “inhibition rate of EdU‐positive cells” value [30] was 99.9%. For the same molecule, the “blood routine indexes (red blood cell, white blood cell, lymph cell)” value ([31]; 400 mg/kg i.p., day 14) was “did not change”, the “liver and kidney function indexes (ALT, AST, creatinine)” value ([31]; 400 mg/kg i.p., day 14) was “did not change” and the “pathology of main organs (heart, liver, spleen, lung, kidney)” value ([31]; 400 mg/kg i.p., day 14, H&E) was “No pathological abnormality”. For the same molecule, the “no observed adverse effect level” value ([31]; mice, i.p.) was 400 mg/kg.
